Results published in ChEMBL document CHEMBL1201862, “PubChem BioAssay data set” (2004).
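Compound exposure: 48 hours, 5 concentrations, 96-well plates. Here, GI50 denotes the concentration required for 50% inhibition of growth.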 The source made the active and inactive calls. No stated cut-off is given here; in the data, active = GI50 up to about 1.1 µM and inactive = higher.

Columns and labels:
Test in all cases: NCI-60 cell line screen, 48 h
SK-OV-3 = system: SK-OV-3
SNB-75 = system: SNB-75
SR = system: SR
NCI-H522 = system: NCI-H522
RPMI-8226 = system: RPMI-8226
EKVX = system: EKVX
OVCAR-8 = system: OVCAR-8
ACHN = system: ACHN
SW-620 = system: SW-620
786-0 = system: 786-0
SN12C = system: SN12C
MOLT-4 = system: MOLT-4
M14 = system: M14
COLO 205 = system: COLO 205
DMS-114 = system: DMS-114
LXFL 529 = system: LXFL 529
UO-31 = system: UO-31
SK-MEL-28 = system: SK-MEL-28
Malme-3M = system: Malme-3M
A549 = system: A549
NCI-H23 = system: NCI-H23
HOP-62 = system: HOP-62
TK-10 = system: TK-10
NCI-H226 = system: NCI-H226
UACC-62 = system: UACC-62
CCRF-CEM = system: CCRF-CEM
OVCAR-5 = system: OVCAR-5
CAKI-1 = system: CAKI-1
HOP-92 = system: HOP-92
IGROV-1 = system: IGROV-1
RXF 393 = system: RXF 393
HL-60 = system: HL-60
HT-29 = system: HT-29
HOP-18 = system: HOP-18
K562 = system: K562
HCT-116 = system: HCT-116
NCI-H460 = system: NCI-H460
SNB-19 = system: SNB-19
SF-268 = system: SF-268
LOX IMVI = system: LOX IMVI
OVCAR-3 = system: OVCAR-3
OVCAR-4 = system: OVCAR-4
KM12 = system: KM12
SNB-78 = system: SNB-78
DMS-273 = system: DMS-273
SF-539 = system: SF-539
SF-295 = system: SF-295
U-251 = system: U-251
HCT-15 = system: HCT-15
DLD-1 = system: DLD-1
M19-MEL = system: M19-MEL
SK-MEL-5 = system: SK-MEL-5
SK-MEL-2 = system: SK-MEL-2
A498 = system: A498
KM-20L2 = system: KM-20L2
HCC 2998 = system: HCC 2998
UACC-257 = system: UACC-257
MCF7 = system: MCF7
NCI/ADR-RES = system: NCI/ADR-RES
XF498 = system: XF498

## Cc1cc(C)c2c(c1C)CN1CN2Cc2c(C)c(C)cc(C)c21
SK-OV-3
  GI50: > 100 µM (inactive)
SNB-75
  GI50: 21 µM (inactive)
SR
  GI50: > 100 µM (inactive)
NCI-H522
  GI50: > 100 µM (inactive)
RPMI-8226
  GI50: > 100 µM (inactive)
EKVX
  GI50: > 100 µM (inactive)
OVCAR-8
  GI50: > 100 µM (inactive)
ACHN
  GI50: > 100 µM (inactive)
SW-620
  GI50: > 100 µM (inactive)
786-0
  GI50: > 100 µM (inactive)
SN12C
  GI50: > 100 µM (inactive)
MOLT-4
  GI50: > 100 µM (inactive)
M14
  GI50: > 100 µM (inactive)
COLO 205
  GI50: 45.6 µM (inactive)
DMS-114
  GI50: 2.92 µM (inactive)
LXFL 529
  GI50: 8.15 µM (inactive)
UO-31
  GI50: > 100 µM (inactive)
SK-MEL-28
  GI50: > 100 µM (inactive)
Malme-3M
  GI50: > 100 µM (inactive)
A549
  GI50: 80.9 µM (inactive)
NCI-H23
  GI50: 6.84 µM (inactive)
HOP-62
  GI50: > 100 µM (inactive)
TK-10
  GI50: > 100 µM (inactive)
NCI-H226
  GI50: > 100 µM (inactive)
UACC-62
  GI50: > 100 µM (inactive)
CCRF-CEM
  GI50: > 100 µM (inactive)
OVCAR-5
  GI50: > 100 µM (inactive)
CAKI-1
  GI50: > 100 µM (inactive)
HOP-92
  GI50: 67.1 µM (inactive)
IGROV-1
  GI50: > 100 µM (inactive)
RXF 393
  GI50: 4.38 µM (inactive)
HL-60
  GI50: 11.4 µM (inactive)
HT-29
  GI50: 44.4 µM (inactive)
HOP-18
  GI50: 83.6 µM (inactive)
K562
  GI50: 8.75 µM (inactive)
HCT-116
  GI50: > 100 µM (inactive)
NCI-H460
  GI50: 48.4 µM (inactive)
SNB-19
  GI50: < 0.01 µM (active)
SF-268
  GI50: > 100 µM (inactive)
LOX IMVI
  GI50: > 100 µM (inactive)
OVCAR-3
  GI50: 18.9 µM (inactive)
OVCAR-4
  GI50: 7.98 µM (inactive)
KM12
  GI50: > 100 µM (inactive)
SNB-78
  GI50: 42.6 µM (inactive)
DMS-273
  GI50: 6.56 µM (inactive)
SF-539
  GI50: > 100 µM (inactive)
SF-295
  GI50: > 100 µM (inactive)
U-251
  GI50: 5.18 µM (inactive)
HCT-15
  GI50: 20.4 µM
DLD-1
  GI50: 20.8 µM (inactive)
M19-MEL
  GI50: 30.5 µM (inactive)

## CSc1nc(NC2OCC(O)C(O)C2O)c(N)c(=O)[nH]1 (stereo not given)
SK-MEL-5
  GI50: > 100 µM (inactive)
SK-MEL-2
  GI50: > 100 µM (inactive)
A498
  GI50: > 100 µM (inactive)
SK-OV-3
  GI50: > 100 µM (inactive)
SNB-75
  GI50: > 100 µM (inactive)
NCI-H522
  GI50: > 100 µM (inactive)
RPMI-8226
  GI50: > 100 µM (inactive)
EKVX
  GI50: > 100 µM (inactive)
OVCAR-8
  GI50: > 100 µM (inactive)
SW-620
  GI50: > 100 µM (inactive)
SN12C
  GI50: > 100 µM (inactive)
MOLT-4
  GI50: > 100 µM (inactive)
COLO 205
  GI50: > 100 µM (inactive)
KM-20L2
  GI50: > 100 µM (inactive)
DMS-114
  GI50: > 100 µM (inactive)
UO-31
  GI50: > 100 µM (inactive)
SK-MEL-28
  GI50: > 100 µM (inactive)
Malme-3M
  GI50: > 100 µM (inactive)
A549
  GI50: > 100 µM (inactive)
NCI-H23
  GI50: > 100 µM (inactive)
HOP-62
  GI50: > 100 µM (inactive)
NCI-H226
  GI50: > 100 µM (inactive)
UACC-62
  GI50: > 100 µM (inactive)
HCC 2998
  GI50: > 100 µM (inactive)
CCRF-CEM
  GI50: > 100 µM (inactive)
UACC-257
  GI50: > 100 µM (inactive)
OVCAR-5
  GI50: > 100 µM (inactive)
HOP-92
  GI50: > 100 µM (inactive)
IGROV-1
  GI50: > 100 µM (inactive)
RXF 393
  GI50: > 100 µM (inactive)
HL-60
  GI50: > 100 µM (inactive)
MCF7
  GI50: > 100 µM (inactive)
HT-29
  GI50: > 100 µM (inactive)
HOP-18
  GI50: > 100 µM (inactive)
K562
  GI50: > 100 µM (inactive)
HCT-116
  GI50: > 100 µM (inactive)
NCI-H460
  GI50: > 100 µM (inactive)
SNB-19
  GI50: > 100 µM (inactive)
SF-268
  GI50: > 100 µM (inactive)
LOX IMVI
  GI50: > 100 µM (inactive)
OVCAR-3
  GI50: > 100 µM (inactive)
OVCAR-4
  GI50: > 100 µM (inactive)
KM12
  GI50: > 100 µM (inactive)
SNB-78
  GI50: > 100 µM (inactive)
DMS-273
  GI50: > 100 µM (inactive)
SF-539
  GI50: > 100 µM (inactive)
SF-295
  GI50: > 100 µM (inactive)
U-251
  GI50: > 100 µM (inactive)
NCI/ADR-RES
  GI50: > 100 µM (inactive)
HCT-15
  GI50: > 100 µM
DLD-1
  GI50: > 100 µM (inactive)
M19-MEL
  GI50: > 100 µM (inactive)

## Nc1nc(SCCNC(=O)CCc2ccc(O)c(I)c2)nc2c1ncn2C1OC(CO)C(O)C1O (stereo not given)
SK-MEL-5
  GI50: > 100 µM (inactive)
SK-MEL-2
  GI50: > 100 µM (inactive)
A498
  GI50: > 100 µM (inactive)
SK-OV-3
  GI50: > 100 µM (inactive)
SNB-75
  GI50: > 100 µM (inactive)
SR
  GI50: > 100 µM (inactive)
NCI-H522
  GI50: > 100 µM (inactive)
EKVX
  GI50: > 100 µM (inactive)
OVCAR-8
  GI50: > 100 µM (inactive)
ACHN
  GI50: > 100 µM (inactive)
SW-620
  GI50: > 100 µM (inactive)
SN12C
  GI50: > 100 µM (inactive)
MOLT-4
  GI50: > 100 µM (inactive)
M14
  GI50: > 100 µM (inactive)
COLO 205
  GI50: > 100 µM (inactive)
KM-20L2
  GI50: > 100 µM (inactive)
DMS-114
  GI50: > 100 µM (inactive)
LXFL 529
  GI50: > 100 µM (inactive)
SK-MEL-28
  GI50: > 100 µM (inactive)
Malme-3M
  GI50: > 100 µM (inactive)
A549
  GI50: > 100 µM (inactive)
NCI-H23
  GI50: > 100 µM (inactive)
HOP-62
  GI50: > 100 µM (inactive)
TK-10
  GI50: > 100 µM (inactive)
NCI-H226
  GI50: > 100 µM (inactive)
UACC-62
  GI50: > 100 µM (inactive)
HCC 2998
  GI50: > 100 µM (inactive)
CCRF-CEM
  GI50: > 100 µM (inactive)
UACC-257
  GI50: > 100 µM (inactive)
OVCAR-5
  GI50: > 100 µM (inactive)
HOP-92
  GI50: > 100 µM (inactive)
IGROV-1
  GI50: > 100 µM (inactive)
RXF 393
  GI50: > 100 µM (inactive)
HL-60
  GI50: > 100 µM (inactive)
HT-29
  GI50: > 100 µM (inactive)
K562
  GI50: > 100 µM (inactive)
HCT-116
  GI50: > 100 µM (inactive)
NCI-H460
  GI50: > 100 µM (inactive)
SNB-19
  GI50: > 100 µM (inactive)
SF-268
  GI50: > 100 µM (inactive)
XF498
  GI50: > 100 µM (inactive)
OVCAR-3
  GI50: > 100 µM (inactive)
OVCAR-4
  GI50: > 100 µM (inactive)
KM12
  GI50: > 100 µM (inactive)
SNB-78
  GI50: > 100 µM (inactive)
DMS-273
  GI50: > 100 µM (inactive)
SF-539
  GI50: > 100 µM (inactive)
SF-295
  GI50: > 100 µM (inactive)
U-251
  GI50: > 100 µM (inactive)
HCT-15
  GI50: > 100 µM
DLD-1
  GI50: > 100 µM (inactive)
M19-MEL
  GI50: > 100 µM (inactive)
